ChEMBL document CHEMBL1201862, “PubChem BioAssay data set” (2004)
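These data come from cells grown in 96-well plates and exposed to compound for 48 hours at five concentrations. At the GI50, growth is halved.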 Activity calls are given as the source filed them. Cut-off read from the data, not from the text of the source: active = GI50 up to about 1.1 µM and inactive = higher.

Columns and labels:
Test in all cases: DTP human tumour cell line panel, 48 h
Malme-3M = tested on: Malme-3M
M19-MEL = tested on: M19-MEL
KM12 = tested on: KM12
SK-MEL-28 = tested on: SK-MEL-28
COLO 205 = tested on: COLO 205
TK-10 = tested on: TK-10
HOP-62 = tested on: HOP-62
NCI-H226 = tested on: NCI-H226
SNB-78 = tested on: SNB-78
A549 = tested on: A549
SF-268 = tested on: SF-268
SF-295 = tested on: SF-295
U-251 = tested on: U-251
LXFL 529 = tested on: LXFL 529
SR = tested on: SR
SW-620 = tested on: SW-620
RXF 393 = tested on: RXF 393
SK-MEL-2 = tested on: SK-MEL-2
SN12C = tested on: SN12C
786-0 = tested on: 786-0
HOP-92 = tested on: HOP-92
SK-MEL-5 = tested on: SK-MEL-5
SNB-19 = tested on: SNB-19
LOX IMVI = tested on: LOX IMVI
NCI-H522 = tested on: NCI-H522
XF498 = tested on: XF498
UO-31 = tested on: UO-31
HCC 2998 = tested on: HCC 2998
KM-20L2 = tested on: KM-20L2
OVCAR-5 = tested on: OVCAR-5
DMS-273 = tested on: DMS-273
HT-29 = tested on: HT-29
HCT-15 = tested on: HCT-15
HL-60 = tested on: HL-60
ACHN = tested on: ACHN
M14 = tested on: M14
UACC-62 = tested on: UACC-62
DLD-1 = tested on: DLD-1
CCRF-CEM = tested on: CCRF-CEM
A498 = tested on: A498
MOLT-4 = tested on: MOLT-4
RPMI-8226 = tested on: RPMI-8226
RXF 631 = tested on: RXF 631
EKVX = tested on: EKVX
OVCAR-4 = tested on: OVCAR-4
SNB-75 = tested on: SNB-75
OVCAR-8 = tested on: OVCAR-8
IGROV-1 = tested on: IGROV-1
UACC-257 = tested on: UACC-257
K562 = tested on: K562
OVCAR-3 = tested on: OVCAR-3
CAKI-1 = tested on: CAKI-1
HOP-18 = tested on: HOP-18
NCI-H23 = tested on: NCI-H23
SF-539 = tested on: SF-539

Question: Which GI50 (Malme-3M) does the source give for `Cc1nc2ccccc2nc1NS(=O)(=O)c1ccc(N)cc1` here?
Answer: Its GI50 is > 100 µM (inactive).

Question: And the GI50 (M19-MEL)?
Answer: Its GI50 is > 100 µM (inactive).

Question: What about the GI50 (KM12) of the same compound?
Answer: The GI50 was > 100 µM (inactive).

Question: And the GI50 (SK-MEL-28)?
Answer: Its GI50 is > 100 µM (inactive).

Question: What about the GI50 (COLO 205) of the same compound?
Answer: Its GI50 is > 100 µM (inactive).

Question: And the GI50 (TK-10)?
Answer: Its GI50 is > 100 µM (inactive).

Question: And the GI50 (HOP-62)?
Answer: The GI50 was > 100 µM (inactive).

Question: And the GI50 (NCI-H226)?
Answer: The GI50 was > 100 µM (inactive).

Question: And the GI50 (SNB-78)?
Answer: Its GI50 is > 100 µM (inactive).

Question: What about the GI50 (A549) of the same compound?
Answer: Its GI50 is > 100 µM (inactive).

Question: And the GI50 (SF-268)?
Answer: The GI50 was > 100 µM (inactive).

Question: What about the GI50 (SF-295) of the same compound?
Answer: The GI50 was > 100 µM (inactive).

Question: And the GI50 (U-251)?
Answer: Its GI50 is > 100 µM (inactive).

Question: And the GI50 (LXFL 529)?
Answer: Its GI50 is > 100 µM (inactive).

Question: And the GI50 (SR)?
Answer: Its GI50 is > 100 µM (inactive).

Question: And the GI50 (SW-620)?
Answer: The GI50 was > 100 µM (inactive).

Question: What about the GI50 (RXF 393) of the same compound?
Answer: The GI50 was > 100 µM (inactive).

Question: And the GI50 (SK-MEL-2)?
Answer: Its GI50 is > 100 µM (inactive).

Question: What about the GI50 (SN12C) of the same compound?
Answer: The GI50 was > 100 µM (inactive).

Question: And the GI50 (786-0)?
Answer: The GI50 was > 100 µM (inactive).

Question: What about the GI50 (HOP-92) of the same compound?
Answer: Its GI50 is > 100 µM (inactive).

Question: What about the GI50 (SK-MEL-5) of the same compound?
Answer: Its GI50 is > 100 µM (inactive).

Question: What about the GI50 (SNB-19) of the same compound?
Answer: Its GI50 is > 100 µM (inactive).

Question: And the GI50 (LOX IMVI)?
Answer: Its GI50 is > 100 µM (inactive).

Question: What about the GI50 (NCI-H522) of the same compound?
Answer: Its GI50 is > 100 µM (inactive).

Question: And the GI50 (XF498)?
Answer: The GI50 was > 100 µM (inactive).

Question: What about the GI50 (UO-31) of the same compound?
Answer: The GI50 was > 100 µM (inactive).

Question: What about the GI50 (HCC 2998) of the same compound?
Answer: Its GI50 is > 100 µM (inactive).

Question: What about the GI50 (KM-20L2) of the same compound?
Answer: Its GI50 is > 100 µM (inactive).

Question: And the GI50 (OVCAR-5)?
Answer: The GI50 was > 100 µM (inactive).

Question: What about the GI50 (DMS-273) of the same compound?
Answer: The GI50 was > 100 µM (inactive).

Question: And the GI50 (HT-29)?
Answer: The GI50 was > 100 µM (inactive).

Question: What about the GI50 (HCT-15) of the same compound?
Answer: Its GI50 is greater than 100 µM.

Question: And the GI50 (HL-60)?
Answer: The GI50 was > 100 µM (inactive).

Question: What about the GI50 (ACHN) of the same compound?
Answer: Its GI50 is > 100 µM (inactive).

Question: What about the GI50 (M14) of the same compound?
Answer: Its GI50 is > 100 µM (inactive).

Question: And the GI50 (UACC-62)?
Answer: The GI50 was > 100 µM (inactive).

Question: What about the GI50 (DLD-1) of the same compound?
Answer: Its GI50 is > 100 µM (inactive).

Question: What about the GI50 (CCRF-CEM) of the same compound?
Answer: Its GI50 is > 100 µM (inactive).

Question: And the GI50 (A498)?
Answer: Its GI50 is > 100 µM (inactive).

Question: And the GI50 (MOLT-4)?
Answer: The GI50 was > 100 µM (inactive).

Question: What about the GI50 (RPMI-8226) of the same compound?
Answer: Its GI50 is > 100 µM (inactive).

Question: And the GI50 (RXF 631)?
Answer: Its GI50 is > 100 µM (inactive).

Question: And the GI50 (EKVX)?
Answer: Its GI50 is > 100 µM (inactive).

Question: And the GI50 (OVCAR-4)?
Answer: Its GI50 is > 100 µM (inactive).

Question: What about the GI50 (SNB-75) of the same compound?
Answer: The GI50 was 50.9 µM (inactive).

Question: And the GI50 (OVCAR-8)?
Answer: The GI50 was > 100 µM (inactive).

Question: What about the GI50 (IGROV-1) of the same compound?
Answer: The GI50 was > 100 µM (inactive).

Question: And the GI50 (UACC-257)?
Answer: The GI50 was > 100 µM (inactive).

Question: What about the GI50 (K562) of the same compound?
Answer: The GI50 was > 100 µM (inactive).

Question: And the GI50 (OVCAR-3)?
Answer: Its GI50 is > 100 µM (inactive).

Question: What about the GI50 (CAKI-1) of the same compound?
Answer: The GI50 was > 100 µM (inactive).

Question: And the GI50 (HOP-18)?
Answer: The GI50 was > 100 µM (inactive).

Question: And the GI50 (NCI-H23)?
Answer: The GI50 was > 100 µM (inactive).

Question: What about the GI50 (SF-539) of the same compound?
Answer: The GI50 was > 100 µM (inactive).
